Measured values reported in US10239831B2, “Method for producing bis(3-aminophenyl)disulfides and 3-aminothiols” (BAYER CROPSCIENCE AG, priority 2012, dated 2019).

Experiment: log P determination
Assay type: physicochemical
Conditions: for chromatographic logP: HCOOH (acidic); for logP: neutral

Nc1cc(SSc2cc(N)c(Cl)cc2Cl)c(Cl)cc1Cl [Example 14, 3,3′-Disulphanediylbis(4,6-dichloroaniline)]
chromatographic logP: 5.14
logP: 4.95

O=[N+]([O-])c1cc(SSc2cc([N+](=O)[O-])c(Cl)cc2Cl)c(Cl)cc1Cl [Example 5, 1,1′-Disulphanediylbis(2,4-dichloro-5-nitrobenzene)]
chromatographic logP: 5.69
logP: 5.64
